Experimental findings from ChEMBL document CHEMBL2074005, “Use of the anionic dye carboxy-2',7'-dichlorofluorescein for sensitive flow cytometric detection of multidrug resistance-associated protein activity” (Int J Oncol, 1999) are described below.

For the series, the target named is Multidrug resistance-associated protein 1 (Homo sapiens, UniProt P33527). As to the kind of experiment: TP_TRANSPORTER: efflux in GLC4/sb30 cells. It is filed as functional, cell-based.
Chain of Multidrug resistance-associated protein 1 (P33527 whole entry): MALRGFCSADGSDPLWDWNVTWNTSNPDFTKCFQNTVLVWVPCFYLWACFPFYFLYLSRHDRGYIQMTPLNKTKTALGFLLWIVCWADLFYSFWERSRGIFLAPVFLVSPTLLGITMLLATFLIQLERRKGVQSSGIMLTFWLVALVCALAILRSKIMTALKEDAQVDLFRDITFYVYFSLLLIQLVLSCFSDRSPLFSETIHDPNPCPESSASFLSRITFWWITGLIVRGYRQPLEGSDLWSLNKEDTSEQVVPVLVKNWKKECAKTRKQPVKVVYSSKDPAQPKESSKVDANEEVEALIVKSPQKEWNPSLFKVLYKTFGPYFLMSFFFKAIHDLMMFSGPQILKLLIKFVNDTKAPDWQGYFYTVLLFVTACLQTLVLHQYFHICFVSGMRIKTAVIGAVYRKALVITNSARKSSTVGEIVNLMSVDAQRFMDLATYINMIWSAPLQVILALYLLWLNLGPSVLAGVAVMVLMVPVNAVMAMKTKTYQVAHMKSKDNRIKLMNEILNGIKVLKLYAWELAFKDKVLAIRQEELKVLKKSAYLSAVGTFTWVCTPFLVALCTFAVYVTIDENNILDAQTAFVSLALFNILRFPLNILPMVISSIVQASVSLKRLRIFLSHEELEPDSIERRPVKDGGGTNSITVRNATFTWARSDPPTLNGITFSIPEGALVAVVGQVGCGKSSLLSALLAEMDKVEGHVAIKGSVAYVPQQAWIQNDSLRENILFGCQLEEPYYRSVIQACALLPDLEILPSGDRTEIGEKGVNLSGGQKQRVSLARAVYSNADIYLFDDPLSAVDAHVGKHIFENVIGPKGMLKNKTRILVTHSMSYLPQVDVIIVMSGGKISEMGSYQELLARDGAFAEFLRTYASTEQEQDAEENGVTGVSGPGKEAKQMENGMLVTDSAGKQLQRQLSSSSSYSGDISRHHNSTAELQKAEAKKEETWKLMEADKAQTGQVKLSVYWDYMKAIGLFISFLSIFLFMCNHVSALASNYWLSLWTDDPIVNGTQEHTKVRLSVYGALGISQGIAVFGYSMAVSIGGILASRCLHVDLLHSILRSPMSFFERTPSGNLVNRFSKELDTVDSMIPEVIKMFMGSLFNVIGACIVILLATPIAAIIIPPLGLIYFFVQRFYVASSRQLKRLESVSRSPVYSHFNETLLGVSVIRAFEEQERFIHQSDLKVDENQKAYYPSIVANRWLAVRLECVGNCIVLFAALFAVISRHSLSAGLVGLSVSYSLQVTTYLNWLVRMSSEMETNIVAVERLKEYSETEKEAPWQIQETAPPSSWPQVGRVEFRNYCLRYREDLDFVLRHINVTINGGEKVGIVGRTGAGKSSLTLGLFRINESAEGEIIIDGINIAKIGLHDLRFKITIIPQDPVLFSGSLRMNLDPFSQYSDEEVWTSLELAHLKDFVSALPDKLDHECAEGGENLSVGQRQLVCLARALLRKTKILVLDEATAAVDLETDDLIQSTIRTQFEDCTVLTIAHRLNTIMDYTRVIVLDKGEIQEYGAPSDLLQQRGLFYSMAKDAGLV

On to `O=C(O)c1ccc(C(=O)O)c(-c2c3cc(Cl)c(=O)cc-3oc3cc(O)c(Cl)cc23)c1.O=C(O)c1cccc(C(=O)O)c1-c1c2cc(Cl)c(=O)cc-2oc2cc(O)c(Cl)cc12`, for which the Activity result was “substrate [+]”.
